Assay results from patent US9028845B2, “Chimeric immunomodulatory compounds and methods of using the same-IV” (Dynavax Technologies Corporation, priority 2001, dated 2015).

How the values were obtained:
CD19+ B cells = test: Human B cell proliferation assay (3H-thymidine incorporation); conditions: B cells, 2 μg/ml, Experiment B
mice = test: Serum cytokines (IL-12 p40, IL-6, TNF-α) after subcutaneous injection in mice; type: in vivo; conditions: 20 ug subcutaneous
Description: Blood was collected 2 hours later. For the LPS positive control group, mice were injected intraperitoneally with a 200 ul volume, and blood was collected 1.5 hours later (i.e., at the peak of LPS induced TNF-α activity). The blood was clotted and the serum was prepared and stored at −80° C. until assayed. Serum cytokines were assayed using Biosource cytoscreen kits for TNF-α and Pharmingen antibody pairs for mIL-6 and mIL-12. All samples were assayed in duplicate.

mouse lung = test: Induction of immune-associated genes in the mouse lung after intranasal treatment (quantitative PCR); type: in vivo, BALB/c mice; conditions: 20 ug intranasal, 6 hrs; vs P-7 treated mice
Description: The genes evaluated included genes encoding cytokines, chemokines, cell surface molecules, transcription factors, metalloproteases, and other molecules. The study was performed at Northview Pacific Laboratories (Hercules, Calif.) with 6-8 week old female BALB/c mice from Jackson Labs (Bar Harbor, Me.). […] Therefore, at 6 hrs the lungs were harvested and snap-frozen in liquid nitrogen and stored at −80° C. for later use. Total RNA was isolated using RNeasy mini kits (Qiagen Inc., Valencia, Calif.). The RNA samples were DNAse-treated (Roche Diagnostics, Mannheim, Germany) and converted into cDNA using Superscript II Rnase H-Reverse Transcriptase (Invitrogen, Rockville Md.) as described in Scheerens et al., 2001, Eur. J. of Immunology 31:1465-74. The cDNA samples were pooled per group and in each pooled sample the expression of mRNA of 75 genes was measured using real-time quantitative PCR (ABI Prism 5700, Perkin Elmer Applied Biosystems) and syber green (Qiagen Inc.). In addition to the genes of interest, in each sample the mRNA expression of a housekeeping gene was measured (HPRT or ubiquitin). In order to correct for the amount of RNA in each sample, all data were calculated relative to the expression of the housekeeping gene.

human PBMCs = test: Human PBMC cytokine response assay (IFN-γ and IFN-α in cell-free medium by ELISA), with or without cPLGA; type: cell-based;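 on IFN-α (pg/ml) mean: 20 µg/mL compound for 24 hours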;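 on IFN-γ (pg/ml) mean: 20 µg/mL compound for 24 hours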
[1] = donor 28066, 20 ug/ml, 24 h, + PLGA = premixed with 100 μg/ml cPLGA
[2] = donor 28067, 20 ug/ml, 24 h, + PLGA = premixed with 100 μg/ml cPLGA
[3] = donor 28068, 20 ug/ml, 24 h, + PLGA = premixed with 100 μg/ml cPLGA
[4] = mean of donors 28065-28068, 20 ug/ml, 24 h, + PLGA = premixed with 100 μg/ml cPLGA
[5] = mean of donors 28185-28188, Table 15

Substance: 5′-TCGTCG-3′-HEG-5′-AACGTT-3′-HEG-5′-AGATGAT-3′ [Compound C-23]
- cpm1 (CD19+ B cells; donor 121): 10628 cpm
- cpm2 (CD19+ B cells; donor 121): 16221 cpm
- cpm3 (CD19+ B cells; donor 121): 20087 cpm
- mean cpm (CD19+ B cells; donor 121 mean): 15645 cpm
- cpm1 (CD19+ B cells; donor 194): 8730 cpm
- cpm2 (CD19+ B cells; donor 194): 6532 cpm
- cpm3 (CD19+ B cells; donor 194): 9596 cpm
- mean cpm (CD19+ B cells; donor 194 mean): 8286 cpm
- mean of both (CD19+ B cells; mean of donors 121 and 194): 11966 cpm
- potency in serum cytokine induction compared with other compounds, in words (mice): more potent than C-9 and P-6
- induction of serum IL-12 p40, IL-6 and TNF-α, in words (mice; blood 2 hours later): induced IL-12 p40, IL-6, and TNF-α
- mRNA expression of immune-associated genes in the lung, in words (mouse lung): potently induce the expression of a variety of genes
- IFN-α (human PBMCs; Table 13, donor 28156): 26 pg/mL
- IFN-γ (human PBMCs; Table 13, donor 28156): 733 pg/mL
- IFN-α (human PBMCs; Table 13, donor 28157): 235 pg/mL
- IFN-γ (human PBMCs; Table 13, donor 28157): 576 pg/mL
- IFN-α (human PBMCs; Table 13, donor 28158): 59 pg/mL
- IFN-γ (human PBMCs; Table 13, donor 28158): 202 pg/mL
- IFN-α (human PBMCs; Table 13, donor 28159): 169 pg/mL
- IFN-γ (human PBMCs; Table 13, donor 28159): 295 pg/mL
- IFN-α mean (human PBMCs; Table 13, mean of donors): 122 pg/mL
- IFN-γ mean (human PBMCs; Table 13, mean of donors): 452 pg/mL
- IFN-γ (pg/ml) 28065 (human PBMCs; donor 28065 (high background), 20 ug/ml, 24 h, + PLGA = premixed with 100 μg/ml cPLGA, 1000 = outside assay limits): 438 pg/mL
- IFN-α (pg/ml) 28065 (human PBMCs; donor 28065, 20 ug/ml, 24 h, + PLGA = premixed with 100 μg/ml cPLGA): 52 pg/mL
- IFN-α (pg/ml) 28066 (human PBMCs; [1]): 3 pg/mL
- IFN-γ (pg/ml) 28066 (human PBMCs; [1]): 5 pg/mL
- IFN-α (pg/ml) 28067 (human PBMCs; [2]): 19 pg/mL
- IFN-γ (pg/ml) 28067 (human PBMCs; [2]): 6 pg/mL
- IFN-α (pg/ml) 28068 (human PBMCs; [3]): 137 pg/mL
- IFN-γ (pg/ml) 28068 (human PBMCs; [3]): 238 pg/mL
- IFN-a (human PBMCs; donor 28185, Table 15): 83 pg/mL
- IFN-g (human PBMCs; donor 28185, Table 15): 42 pg/mL
- IFN-a (human PBMCs; donor 28186, Table 15): 27 pg/mL
- IFN-g (human PBMCs; donor 28186, Table 15): 14 pg/mL
- IFN-a (human PBMCs; donor 28187, Table 15): 59 pg/mL
- IFN-g (human PBMCs; donor 28187, Table 15): 29 pg/mL
- IFN-a (human PBMCs; donor 28188, Table 15): 55 pg/mL
- IFN-g (human PBMCs; donor 28188, Table 15): 3 pg/mL
- IFN-α (pg/ml) mean (human PBMCs; [4]): 53 pg/mL
- IFN-γ (pg/ml) mean (human PBMCs; [4]): 172 pg/mL
- IFN-a (pg/ml) mean (human PBMCs; [5]): 56 pg/mL
- IFN-g (pg/ml) mean (human PBMCs; [5]): 22 pg/mL
- IFN-a (pg/ml) ×2 (human PBMCs; mean ×2, Table 15): 112 pg/mL
- IFN-g (pg/ml) ×4 (human PBMCs; mean ×4, Table 15): 88 pg/mL
